Source: publication PMC7211037 (Journal of bone and mineral research : the official journal …, 2016)

What was measured:
CaSR [1] = biological target: T1, CaSR (Homo sapiens, UniProt P41180); assay: Intracellular calcium mobilization assay in HEK-CaSR cells; type: cell-based; conditions: for Maximal response of Ca^2+ (intracellular Ca^2+): normalized to 7.49 mM Ca^2+ + vehicle in pcDNA3.1 cells
T1 sequence (P41180 20-536 limits assumed): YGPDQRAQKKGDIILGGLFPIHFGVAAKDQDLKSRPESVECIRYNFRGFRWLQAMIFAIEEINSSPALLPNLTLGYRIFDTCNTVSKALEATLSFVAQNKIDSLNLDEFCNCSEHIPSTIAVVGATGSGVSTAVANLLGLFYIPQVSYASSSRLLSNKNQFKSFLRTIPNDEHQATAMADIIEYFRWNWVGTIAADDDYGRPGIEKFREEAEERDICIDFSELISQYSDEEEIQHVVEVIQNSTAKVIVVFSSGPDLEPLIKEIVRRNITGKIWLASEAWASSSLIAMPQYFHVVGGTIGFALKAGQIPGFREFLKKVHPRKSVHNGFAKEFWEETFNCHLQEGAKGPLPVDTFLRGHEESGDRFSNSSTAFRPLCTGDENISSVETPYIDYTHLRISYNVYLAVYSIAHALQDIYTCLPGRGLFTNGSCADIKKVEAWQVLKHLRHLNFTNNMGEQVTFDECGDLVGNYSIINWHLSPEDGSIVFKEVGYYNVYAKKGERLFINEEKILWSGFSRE

CaSR [2] = biological target: T1, CaSR; assay: cAMP accumulation assay in HEK-CaSR cells; type: cell-based; conditions: 3 mM Ca^2+; GPR64ΔNTF-transfected HEK-CaSR cells (Fig. 7C)
[3] = tested on: human parathyroid adenoma cells; assay: PTH secretion from freshly isolated parathyroid adenoma cells; type: cell-based; conditions: increasing concentrations of Ca^2+, 30 min at 37°C; normalized to vehicle in 0.5 mM Ca^2+; representative of five independent experiments
CaSR [4] = biological target: T1, CaSR; conditions: patients; cited from earlier work
[5] = full-length GPR64-transfected HEK-CaSR cells, vehicle, mean ± SE

| SMILES | Hill slope of Ca^2+ (intracellular Ca^2+) (CaSR [1]; [5]) | pEC50 of Ca^2+ (intracellular Ca^2+) (CaSR [1]; [5]) | Maximal response of Ca^2+ (intracellular Ca^2+) (CaSR [1]; [5]) | Maximal response of Ca^2+ (intracellular Ca^2+) (CaSR [1]; pcDNA3.1-transfected HEK-CaSR cells, vehicle, mean ± SE) | Intracellular Ca^2+ levels (in words) (CaSR [1]; vehicle-treated pcDNA3.1-transfected HEK-CaSR cells) | cAMP level with Ca^2+ (in words) (CaSR [2]) | PTH secretion (in words) [3] | Serum Ca^2+ normalization (in words) (CaSR [4]) |
| --- | --- | --- | --- | --- | --- | --- | --- | --- |
| [Ca+2].[Cl-].[Cl-] [Ca^2+, calcium chloride] | 2.915 ± 0.159 | 3.566 ± 0.010 | 101.70 ± 0.762% | 101.5 ± 1.177% | elevated the intracellular Ca^2+ levels in a concentration-dependent manner | reduced this effect, the cAMP level was still higher than that of cells transfected with empty vector in normocalcemic conditions | suppressed PTH secretion in a dose-dependent manner |  |
| C[C@@H](NCCCc1cccc(C(F)(F)F)c1)c1cccc2ccccc12 [cinacalcet] |  |  |  |  |  |  |  | normalize the serum Ca^2+ in a significant percentage of patients |
